Laboratory results: ChEMBL document CHEMBL3046836, “Laboratory assays of select candidate insecticides for control of Dendroctonus ponderosae” (2011)
≈ marks a conversion by molar mass, not a printed value. Where “and” joins values, the source holds several entries; their conditions need not be identical. Equal entries are not always repeated. Calls of active or inactive are those of the source. The calls are words filed in the database; no cut-off is given here.

Legend:
Assay type in all cases: functional
Dendroctonus ponderosae [1] = assay: Insecticidal activity against adult male Dendroctonus ponderosae assessed as mortality applied topically to ventral surface of insect mesothorax after 24 hr
Dendroctonus ponderosae [2] = assay: Insecticidal activity against adult female Dendroctonus ponderosae assessed as mortality applied topically to ventral surface of insect mesothorax after 24 hr
Dendroctonus ponderosae [3] = assay: Insecticidal activity against adult male Dendroctonus ponderosae assessed as mortality after 24 hr by filter paper assay
Dendroctonus ponderosae [4] = assay: Insecticidal activity against adult female Dendroctonus ponderosae assessed as mortality after 24 hr by filter paper assay
Dendroctonus ponderosae [5] = assay: Insecticidal activity against adult Dendroctonus ponderosae assessed as mortality applied topically to ventral surface of insect mesothorax after 24 hr
Dendroctonus ponderosae [6] = assay: Insecticidal activity against adult Dendroctonus ponderosae assessed as mortality applied topically on the ventral surface of insect mesothorax after 12 hr; settings: topical
Dendroctonus ponderosae [7] = assay: Insecticidal activity against adult Dendroctonus ponderosae assessed as mortality after 24 hr by filter paper assay
Dendroctonus ponderosae [8] = assay: Insecticidal activity against adult Dendroctonus ponderosae assessed as mortality after 12 hr by filter paper assay
[9] = Dendroctonus ponderosae, topical, 24 h, read-out: LC50
[10] = Dendroctonus ponderosae, 24 h, read-out: LC50

SMILES | LC50 (Dendroctonus ponderosae [1]; [9]) | LC50 (Dendroctonus ponderosae [2]; [9]) | LC50 (Dendroctonus ponderosae [3]; [10]) | LC50 (Dendroctonus ponderosae [4]) | LC50 (Dendroctonus ponderosae [5]; [9]) | LC50 (Dendroctonus ponderosae [6]) | LC50 (Dendroctonus ponderosae [7]; [10]) | LC50 (Dendroctonus ponderosae [8]) | LC50 (Dendroctonus ponderosae [1]) | LC50 (Dendroctonus ponderosae [2]) | LC50 (Dendroctonus ponderosae [3]) | LC50 (Dendroctonus ponderosae [5]) | LC50 (Dendroctonus ponderosae [7]) | LC50 (Dendroctonus ponderosae [8]; Dendroctonus ponderosae, 12 h, read-out: LC50)
CNC(=O)c1cc(Cl)cc(C)c1NC(=O)c1cc(Br)nn1-c1ncccc1Cl [CHLORANTRANILIPROLE] | 1750 µg/mL (≈ 3620 µM) | 1110 µg/mL (≈ 2300 µM) | 11 µg/mL (≈ 22.8 µM) | 72.7 µg/mL (≈ 150 µM) | 1380 µg/mL (≈ 2870 µM) | 6300 µg/mL (≈ 13000 µM) | 34.9 µg/mL (≈ 72.2 µM) | inactive | – | – | – | – | – | –
CNC(=O)c1cc(C#N)cc(C)c1NC(=O)c1cc(Br)nn1-c1ncccc1Cl [CYANTRANILIPROLE] | – | 258 µg/mL (≈ 544 µM) | 3.4 µg/mL (≈ 7.18 µM) | – | 271 µg/mL (≈ 571 µM) | – | – | 46.1 mg/L (≈ 97.3 µM) | 301.5 µg/mL and 102 µg/mL | 164.8 µg/mL (≈ 348 µM) | 1.7 µg/mL (≈ 3.59 µM) | 141.5 µg/mL (≈ 299 µM) | 3 µg/mL and 6.2 µg/mL | 56.8 mg/L (≈ 120 µM)
